Measurements published in PMC10041525, “New Dual Inhibitors of Bacterial Topoisomerases with Broad-Spectrum Antibacterial Activity and In Vivo Efficacy against Vancomycin-Intermediate Staphylococcus aureus” (Journal of Medicinal Chemistry, 2023).
≈ marks a conversion by molar mass, not a printed value. Where “and” joins values, the source holds several entries; their conditions need not be identical. Identical values can stand only once. Like-named read-outs stand apart in the source and are kept apart here.

How the values were obtained:
S. pneumoniae (n = 12) = assay: MIC broth microdilution at IHMA Europe; format: cell-based; conditions: for MIC: Streptococcus pneumoniae, read-out: MIC
P. aeruginosa ATCC 27853 = assay: IHMA QC MIC; format: cell-based; conditions: for MIC: Pseudomonas aeruginosa
E. coli ATCC 35218 = assay: IHMA QC MIC; format: cell-based; conditions: Escherichia coli, ATCC35218, read-out: MIC (QC, repeated tests)
Method: (§1) The panel of Hungarian clinical isolates and controls measured following the same method as detailed above, and albeit measurements were carried out in 384-well microtiter plates (Corning Inc.).

A. baumannii ATCC 17978 = assay: IHMA QC MIC; format: cell-based
Method: as §1

E. faecium (n = 13) = assay: MIC broth microdilution at IHMA Europe; format: cell-based; conditions: for MIC: Enterococcus faecium, read-out: MIC
E. coli ATCC 25922 = assay: IHMA QC MIC; format: cell-based; conditions: QC strain E. coli ATCC 25922, test date 2021-11-26
S. pneumoniae ATCC 49619 = assay: IHMA QC MIC; format: cell-based
Text: (§2) Supplement jm2c01905_si_004.xlsx, sheet "QC" | column: MIC [µg/mL]

E. faecalis ATCC 29212 = assay: IHMA QC MIC; format: cell-based
Text: as §2

[1] = system: N. gonorrhoeae ATCC 49226; assay: IHMA QC MIC; format: cell-based; conditions: Neisseria gonorrhoeae, ATCC49226
Text: as §2

H. influenzae ATCC 49247 = assay: IHMA QC MIC; format: cell-based
Text: as §2

H. influenzae ATCC 49766 = assay: IHMA QC MIC; format: cell-based
Text: as §2

[2] = system: Haemophilus influenzae (n = 14); assay: MIC broth microdilution at IHMA Europe; format: cell-based, H. influenzae; conditions: for MIC: Haemophilus influenzae, read-out: MIC
[3] = system: Neisseria gonorrhoeae (n = 12); assay: MIC broth microdilution at IHMA Europe; format: cell-based; conditions: for MIC: Neisseria gonorrhoeae, read-out: MIC
in vitro = in vitro ADME, mouse; conditions: male, CD-1, mouse
Method: The PPB studies were performed by Selvita d.o.o. (Zagreb, Croatia) in mouse plasma (CD-1 male, pooled, commercially obtained from BioIVT) via equilibrium dialysis. Compounds were assayed at 5 μM (0.5% DMSO) in two replicates, and incubation time was 4 h at 37 °C. Samples were taken at 0 min and 4 h. Aliquots from both buffer and plasma compartment matrix were matched and mixed with 6 volumes of STOP solution (acetonitrile/methanol (2:1) + internal standard – diclofenac) and analyzed by LC–MS/MS. Assay controls were caffeine (low), verapamil (moderate binding), and nicardipine (very high binding), and protein contamination was checked.

SMILES: Cc1[nH]c(C(=O)Nc2nc3c(N4[C@@H]5CC[C@H]4COC5)cc(C(=O)O)cc3s2)c(Cl)c1Cl [7h, 4-((1R,5S)-3-Oxa-8-azabicyclo[3.2.1]octan-8-yl)-2-(3,4-dichloro-5-methyl-1H-pyrrole-2-carboxamido)benzo[d]thiazole-6-carboxylic Acid]
- Cumulative % at MIC (S. pneumoniae (n = 12); MIC 0.06 µg/mL): 16.7%
- Cumulative % at MIC (S. pneumoniae (n = 12); MIC 0.5 µg/mL): 100.0%
- Cumulative % at MIC (S. pneumoniae (n = 12); MIC […]): 91.7%
- MIC (S. pneumoniae (n = 12); S. pneumoniae IHMA N° 1775387): 0.25 µg/mL (≈ 0.519 µM)
- MIC (S. pneumoniae (n = 12); S. pneumoniae IHMA N° 1776057): 0.5 µg/mL (≈ 1.04 µM)
- MIC (S. pneumoniae (n = 12); S. pneumoniae IHMA N° 1785617): 0.25 µg/mL (≈ 0.519 µM)
- MIC (S. pneumoniae (n = 12); S. pneumoniae IHMA N° 1800765): 0.25 µg/mL (≈ 0.519 µM)
- MIC (S. pneumoniae (n = 12); S. pneumoniae IHMA N° 1811259): 0.06 µg/mL (≈ 0.125 µM)
- MIC (S. pneumoniae (n = 12); S. pneumoniae IHMA N° 1831562): 0.25 µg/mL (≈ 0.519 µM)
- MIC (S. pneumoniae (n = 12); S. pneumoniae IHMA N° 1902609): 0.25 µg/mL (≈ 0.519 µM)
- MIC (S. pneumoniae (n = 12); S. pneumoniae IHMA N° 1979675): 0.25 µg/mL (≈ 0.519 µM)
- MIC (S. pneumoniae (n = 12); S. pneumoniae IHMA N° 1991963): 0.25 µg/mL (≈ 0.519 µM)
- MIC (S. pneumoniae (n = 12); S. pneumoniae IHMA N° 2057487): 0.25 µg/mL (≈ 0.519 µM)
- MIC (S. pneumoniae (n = 12); S. pneumoniae IHMA N° 2073087): 0.25 µg/mL (≈ 0.519 µM)
- MIC (S. pneumoniae (n = 12); S. pneumoniae IHMA N° 2117109): 0.06 µg/mL (≈ 0.125 µM)
- MIC, all isolates (S. pneumoniae (n = 12); n = 12): ≤ 0.5 µg/mL
- MIC (QC, repeated tests) (P. aeruginosa ATCC 27853): 4 µg/mL (≈ 8.31 µM)
- MIC (P. aeruginosa ATCC 27853; ATCC27853, QC strain P. aeruginosa ATCC 27853, test date 2021-11-11): 16 µg/mL (≈ 33.2 µM)
- MIC (P. aeruginosa ATCC 27853; ATCC27853, QC strain P. aeruginosa ATCC 27853, test date 2021-11-26): 8 µg/mL (≈ 16.6 µM)
- MIC (P. aeruginosa ATCC 27853; ATCC27853, read-out: MIC (QC, repeated tests)): 8 µg/mL (≈ 16.6 µM)
- MIC (E. coli ATCC 35218): 2 µg/mL (≈ 4.15 µM)
- MIC (QC, repeated tests) (A. baumannii ATCC 17978): 1 µg/mL (≈ 2.08 µM)
- MIC (E. faecium (n = 13); E. faecium IHMA N° 1764866): ≤ 0.03 µg/mL
- MIC (E. faecium (n = 13); E. faecium IHMA N° 1765436): 0.06 µg/mL (≈ 0.125 µM)
- MIC (E. faecium (n = 13); E. faecium IHMA N° 1765746): ≤ 0.03 µg/mL
- MIC (E. faecium (n = 13); E. faecium IHMA N° 1893573): ≤ 0.03 µg/mL
- MIC (E. faecium (n = 13); E. faecium IHMA N° 1893846): 0.12 µg/mL (≈ 0.249 µM)
- MIC (E. faecium (n = 13); E. faecium IHMA N° 1893942): 0.06 µg/mL (≈ 0.125 µM)
- MIC (E. faecium (n = 13); E. faecium IHMA N° 1894055): 0.06 µg/mL (≈ 0.125 µM)
- MIC (E. faecium (n = 13); E. faecium IHMA N° 1897027): 0.06 µg/mL (≈ 0.125 µM)
- MIC (E. faecium (n = 13); E. faecium IHMA N° 1897101): ≤ 0.03 µg/mL
- MIC (E. faecium (n = 13); E. faecium IHMA N° 1904592): ≤ 0.03 µg/mL
- MIC (E. faecium (n = 13); E. faecium IHMA N° 2075051): 0.06 µg/mL (≈ 0.125 µM)
- MIC (E. faecium (n = 13); E. faecium IHMA N° 2077718): ≤ 0.03 µg/mL
- MIC (E. faecium (n = 13); E. faecium IHMA N° 2083787): ≤ 0.03 µg/mL
- Cumulative % at MIC (E. faecium (n = 13); MIC 0.06 µg/mL): 92.3%
- Cumulative % at MIC (E. faecium (n = 13); MIC […]): 100.0%
- Cumulative % at MIC (E. faecium (n = 13); MIC ≤0.03 µg/mL): 53.8%
- MIC, all isolates (E. faecium (n = 13); n = 13): ≤ 0.12 µg/mL
- MIC (E. coli ATCC 25922): 4 µg/mL (≈ 8.31 µM)
- MIC (S. pneumoniae ATCC 49619; QC strain S. pneumoniae ATCC 49619, test date 2021-11-26): 0.25 µg/mL (≈ 0.519 µM)
- MIC (S. pneumoniae ATCC 49619; Streptococcus pneumoniae, ATCC49619): 0.25 µg/mL (≈ 0.519 µM)
- MIC (E. faecalis ATCC 29212; Enterococcus faecalis, ATCC29212): ≤ 0.03 µg/mL
- MIC (E. faecalis ATCC 29212; QC strain E. faecalis ATCC 29212, test date 2021-11-26): ≤0,03 µg/mL
- MIC [1]: ≤ 0.03 µg/mL
- MIC (H. influenzae ATCC 49247; Haemophilus influenzae, ATCC49247, QC strain H. influenzae ATCC 49247, test date 2021-11-11): 0.25 µg/mL (≈ 0.519 µM)
- MIC (H. influenzae ATCC 49247; Haemophilus influenzae, ATCC49247, QC strain H. influenzae ATCC 49247, test date 2021-11-26): 0.06 µg/mL (≈ 0.125 µM)
- MIC (H. influenzae ATCC 49247; QC strain H. influenzae ATCC 49247, test date 2021-11-11): 0.5 µg/mL (≈ 1.04 µM)
- MIC (H. influenzae ATCC 49766; Haemophilus influenzae, ATCC49766): 0.25 µg/mL (≈ 0.519 µM)
- MIC (H. influenzae ATCC 49766; QC strain H. influenzae ATCC 49766, test date 2021-11-26): 0.25 µg/mL (≈ 0.519 µM)
- No. of isolates at MIC [2]: 5 and 4
- MIC ([2]; H. influenzae IHMA N° 1227715): 0.12 µg/mL (≈ 0.249 µM)
- MIC ([2]; H. influenzae IHMA N° 1241620): 0.12 µg/mL (≈ 0.249 µM)
- MIC ([2]; H. influenzae IHMA N° 1244149): 0.5 µg/mL (≈ 1.04 µM)
- MIC ([2]; H. influenzae IHMA N° 1249803): 0.12 µg/mL (≈ 0.249 µM)
- MIC ([2]; H. influenzae IHMA N° 1254355): 0.25 µg/mL (≈ 0.519 µM)
- MIC ([2]; H. influenzae IHMA N° 1258580): 0.5 µg/mL (≈ 1.04 µM)
- MIC ([2]; H. influenzae IHMA N° 1262734): 0.25 µg/mL (≈ 0.519 µM)
- MIC ([2]; H. influenzae IHMA N° 1272723): 0.12 µg/mL (≈ 0.249 µM)
- MIC ([2]; H. influenzae IHMA N° 1286846): 0.5 µg/mL (≈ 1.04 µM)
- MIC ([2]; H. influenzae IHMA N° 1337530): 0.12 µg/mL (≈ 0.249 µM)
- MIC ([2]; H. influenzae IHMA N° 1440085): 0.5 µg/mL (≈ 1.04 µM)
- MIC ([2]; H. influenzae IHMA N° 1479509): 1 µg/mL (≈ 2.08 µM)
- MIC ([2]; H. influenzae IHMA N° 1952952): 0.25 µg/mL (≈ 0.519 µM)
- MIC ([2]; H. influenzae IHMA N° 2047461): 0.25 µg/mL (≈ 0.519 µM)
- Cumulative % at MIC ([2]; MIC 0.5 µg/mL): 92.9%
- Cumulative % at MIC ([2]; MIC 1 µg/mL): 100.0%
- No. of isolates at MIC ([2]; MIC 1 µg/mL): 1
- MIC, all isolates ([2]; n = 14): ≤ 1 µg/mL
- No. of isolates at MIC [3]: 8 and 4
- Cumulative % at MIC ([3]; MIC 0.06 µg/mL): 100.0%
- Cumulative % at MIC ([3]; MIC ≤0.03 µg/mL): 66.7%
- MIC ([3]; isolate IHMA 1123853): ≤ 0.03 µg/mL
- MIC ([3]; isolate IHMA 1130935): ≤ 0.03 µg/mL
- MIC ([3]; isolate IHMA 1130989): 0.06 µg/mL (≈ 0.125 µM)
- MIC ([3]; isolate IHMA 1130991): ≤ 0.03 µg/mL
- MIC ([3]; isolate IHMA 1137292): 0.06 µg/mL (≈ 0.125 µM)
- MIC ([3]; isolate IHMA 1145734): ≤ 0.03 µg/mL
- MIC ([3]; isolate IHMA 1145735): ≤ 0.03 µg/mL
- MIC ([3]; isolate IHMA 1165897): ≤ 0.03 µg/mL
- MIC ([3]; isolate IHMA 1194748): ≤ 0.03 µg/mL
- MIC ([3]; isolate IHMA 1194750): ≤ 0.03 µg/mL
- MIC ([3]; isolate IHMA 1546199): 0.06 µg/mL (≈ 0.125 µM)
- MIC ([3]; isolate IHMA 1546215): 0.06 µg/mL (≈ 0.125 µM)
- MIC, all isolates ([3]; n = 12): ≤ 0.06 µg/mL
- fraction unbound at 4 h, 5 μM (in vitro; plasma, fu, fraction unbound): 0.009
- recovery at 4 h, 5 μM (in vitro; plasma protein binding assay): 89%
